Results: patent US12630529B2, “GCN2 modulator compounds” (ALESTA THERAPEUTICS BV, priority 2020, dated 2026)

Key:
GCN2 = biological target: T1, GCN2 (Mus musculus, UniProt Q9QZ05); assay: GCN2 inhibition cell-based assay (P-GCN2 Western blot in Neuro 2a cells); settings: amino acid deprived media (DMEM lacking L-cysteine and methionine), 3 hours
T1 construct: endogenous in cells; host or cells: Neuro 2a (N2a)
Experimental: Neuro 2a cells (N2a) were maintained at 37° C. and 5% CO2 in DMEM/F12 medium (Fisher Scientific) supplemented with 10% fetal bovine serum and 1% penicillin-streptomycin (complete medium). 300,000 cells/well were seeded in flat bottom 6 well plates 48 hours before treatment with the compounds.
Testing compounds were prepared at different concentrations ranging from 10 μM to 0.1 nM on DMEM medium lacking L-cysteine and methionine (DMEM-CM) (Gibco) and supplemented with 1% penicillin-streptomycin. Complete medium was used as control of non-stressed condition. After 48 hours, the medium was removed from each well and 2 mL per well of each treatment was added. Cells were treated for 3 hours at 37° C. and 5% CO2.
After the incubation time, each well was washed with sterile 1×PBS and then 100 μL of ice-cold lysis buffer supplemented with phosphatase and protease inhibitors was added. Lysates were transferred to 1.5 mL tubes and sonicated for 3 min, and total protein amounts were quantified using BCA assay (e.g., BCA Protein Assay Kit; Pierce) according to manufacturer instructions. Equal amount of proteins was loaded on SDS-PAGE gels for electrophoresis and then transferred onto 0.2 µm filter pore PVDF membranes.
Membranes were then blocked in blocking buffer containing 3% BSA/0.1% Tween/1×Tris-buffered saline (TBS) for 1 hour and then incubated overnight at 4° C. with agitation with anti-pGCN2 primary antibody (Abcam ab-75836), diluted 1:1,000 in blocking buffer. […] (Sigma Aldrich) was used as a loading control.
Membranes were then incubated with the corresponding secondary antibody to detect immune-reactive bands using enhanced chemiluminescence (e.g., ECL Western Blotting Substrate Pierce).
Images were acquired (e.g., using Chemidoc™ equipment) and quantitated by densitometry using ImageJ software. IC50 values were determined from a concentration-response curve using GraphPad prism software.
IC50 values from P-GCN2 inhibition assay after induction with amino acid deprived media in the presence of different concentrations of test compounds are shown in Table 2. For IC50 values: +++ refers to <10 nM of test compound; ++ refers to 10 nM to 100 nM of test compound; + refers to 100 nM to 1,000 nM of test compound and − refers to >1,000 nM of test compound.
Under GCN2-mediated stress conditions, resulting from an amino acid deprived medium, GCN2 is generally phosphorylated. Accordingly, inhibition of GCN2 phosphorylation as a result of the test compound indicates inhibition of the GCN2 pathway.

CHOP (DDIT3) reporter = assay: GCN2-induction of CHOP and apoptosis in 3T3 fibroblasts with CHOP (DDIT3) reporter construct; format: cell-based, murine
Experimental: The CHOP construct comprised the […] (UTR) of mouse DDIT3 mRNA fused to a sequence encoding the fluorescent protein mCherry.
Cells were seeded at 5,000 cells per well in flat bottom 96-well plates in 100 μL DMEM low glucose media without phenol red, and supplemented with 10% FBS and 2 mM glutamine. After 24 hours, the exemplary compounds, and either tunicamycin, halofuginone, or histidinol, were added together with 100 nM of fluorescent apoptosis stain (YO-PRO™-1 Iodide; Thermo Fisher) to detect apoptotic cells. Cells were placed in a live-cell imaging and analysis platform (IncuCyte ZOOM®; Essenbio) set up in a humidified incubator at 37° C. and the plates were scanned every 4 hours for up 120 hours, at 10× magnification, to determine cell confluence and cell death. Experiments were performed in duplicate with 3 images collected per well, and analyzed using live-cell imaging and analysis software (IncuCyte ZOOM® 2018A software; Essenbio).

HT29 cells = assay: Growth of tumor spheroids; format: cell-based; settings: 64 μM arginine, up to 120 hours, vs untreated spheroids
Experimental: The growth of tumor spheroids was evaluated following treatment of cells with Compound 1, Compound 2 and Compound 108. Briefly, HT29 cells were seeded at 5,000 cells/well in ultra-low attachment round bottom 96-well plates, in 100 μL SILAC DMEM Flex media without phenol red, supplemented with 10% fetal bovine serum (FBS), 1 g/L glucose, 2 mM glutamine, 220 μM lysine, and 64 μM arginine. The plates were centrifuged for 10 minutes at 125×g and put in a humidified incubator at 37° C. for 3 days before the onset of the experiment to allow spheroids to form.
Three days after seeding, 10 μM Compound 1, 10 μM Compound 2, 10 μM Compound 108 or 10 μM vehicle control (0.1% DMSO), were added together with 100 nM fluorescent apoptosis stain (e.g., YO-PRO™-1 Iodide; Thermo Fisher) to detect apoptotic cells and Nuclear-ID Red DNA Stain (1:100,000; ENZO Life Sciences) to detect live cells. Plates were placed in a live-cell imaging and analysis platform (e.g., IncuCyte ZOOM®; Essenbio) set up in a humidified incubator at 37° C. and scanned every 4 hours for up 120 hours, at 10× magnification, to determine relative spheroid size and cell death. Experiments were performed in quadruplicate and analyzed using live-cell imaging and analysis software (e.g., IncuCyte ZOOM® 2018A software; Essenbio).

T1 sequence (Q9QZ05 whole entry): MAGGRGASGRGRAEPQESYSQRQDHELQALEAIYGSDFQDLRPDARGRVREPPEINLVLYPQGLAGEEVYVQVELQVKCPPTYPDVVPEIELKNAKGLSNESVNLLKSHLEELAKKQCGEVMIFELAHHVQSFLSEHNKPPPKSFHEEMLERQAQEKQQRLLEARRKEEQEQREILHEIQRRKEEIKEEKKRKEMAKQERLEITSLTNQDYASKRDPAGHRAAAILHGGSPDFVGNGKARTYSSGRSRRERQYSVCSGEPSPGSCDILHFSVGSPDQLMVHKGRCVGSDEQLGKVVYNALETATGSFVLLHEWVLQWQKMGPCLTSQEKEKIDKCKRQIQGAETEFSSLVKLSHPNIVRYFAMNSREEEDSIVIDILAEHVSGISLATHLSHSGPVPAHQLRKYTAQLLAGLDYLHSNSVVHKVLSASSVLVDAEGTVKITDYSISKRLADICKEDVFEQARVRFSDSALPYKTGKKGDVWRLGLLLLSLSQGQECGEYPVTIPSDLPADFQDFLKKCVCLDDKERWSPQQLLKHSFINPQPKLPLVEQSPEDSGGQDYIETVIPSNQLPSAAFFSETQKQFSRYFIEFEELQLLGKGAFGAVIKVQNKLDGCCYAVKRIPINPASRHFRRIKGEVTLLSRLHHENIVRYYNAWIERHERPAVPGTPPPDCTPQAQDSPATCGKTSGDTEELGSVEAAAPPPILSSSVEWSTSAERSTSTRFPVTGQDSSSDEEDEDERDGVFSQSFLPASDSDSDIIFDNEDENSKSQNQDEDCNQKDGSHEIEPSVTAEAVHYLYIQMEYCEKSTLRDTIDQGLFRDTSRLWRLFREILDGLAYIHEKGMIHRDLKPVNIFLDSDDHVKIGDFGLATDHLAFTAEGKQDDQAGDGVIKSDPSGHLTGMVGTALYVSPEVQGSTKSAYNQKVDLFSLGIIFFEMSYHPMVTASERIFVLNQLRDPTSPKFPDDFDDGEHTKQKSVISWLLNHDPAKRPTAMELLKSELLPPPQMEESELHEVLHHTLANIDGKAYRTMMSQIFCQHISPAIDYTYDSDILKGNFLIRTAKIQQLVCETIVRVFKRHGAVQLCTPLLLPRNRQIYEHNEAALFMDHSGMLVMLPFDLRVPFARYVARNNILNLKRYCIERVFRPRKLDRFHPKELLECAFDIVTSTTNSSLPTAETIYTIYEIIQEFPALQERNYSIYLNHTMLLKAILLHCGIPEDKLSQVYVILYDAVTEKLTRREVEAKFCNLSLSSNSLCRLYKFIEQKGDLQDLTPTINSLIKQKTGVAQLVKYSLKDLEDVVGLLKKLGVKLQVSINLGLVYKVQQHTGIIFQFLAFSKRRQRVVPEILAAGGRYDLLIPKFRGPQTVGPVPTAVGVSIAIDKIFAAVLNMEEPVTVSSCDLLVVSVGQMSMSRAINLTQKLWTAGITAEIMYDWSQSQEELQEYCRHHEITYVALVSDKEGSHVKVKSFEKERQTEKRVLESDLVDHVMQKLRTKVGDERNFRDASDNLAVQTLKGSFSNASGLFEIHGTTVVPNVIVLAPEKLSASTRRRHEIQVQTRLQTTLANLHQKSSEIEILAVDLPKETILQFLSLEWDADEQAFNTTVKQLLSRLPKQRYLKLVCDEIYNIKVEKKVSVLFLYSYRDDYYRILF

Nc1ncc2cc(-c3c(F)ccc(NS(=O)(=O)c4cc(Cl)cc(CO)c4Cl)c3F)ccc2n1 [Compound 108]
IC50 (GCN2): < 10 nM
GCN2 activation / GCN2-induced CHOP activation (CHOP (DDIT3) reporter; murine 3T3 CHOP (mCherry) reporter fibroblasts, increasing concentrations, in the presence of halofuginone or histidinol): reduced GCN2 activation
apoptosis induced by halofuginone (CHOP (DDIT3) reporter; murine 3T3 WT cells, co-treatment with halofuginone): effectively inhibited apoptosis
late-stage apoptosis induced by histidinol (CHOP (DDIT3) reporter; murine 3T3 WT cells, co-treatment with histidinol): increased late-stage apoptosis
spheroid size and viability (HT29 cells): relative reduction in spheroid size and viability in a dose-dependent manner
